Measured values: US8614236B2 (University of Washington, priority 2006, dated 2013)
Values joined by “and” are separate entries in the source; they are usually repeats but may differ in a detail not shown here. Equal entries are not always repeated. “Also recorded” adds a separate entry of the source.

How the values were obtained:
Beagle dogs [1] = test: Dog study: arterial blood gases, ventilation and acid-base status in normoxia and hypoxia; type: in vivo
Text: The dogs were kept under highly standardized conditions and received a standardized diet five days before the experiments. […] To permit spontaneous breathing through a low resistance circuit, a face mask was attached, which enclosed the dog's snout in a leak proof fashion. This custom made mask is equipped with a 2.5 cm ID connector to connect it to a ventilator set to CPAP mode (3 4 cmH20) (Servo900C; Siemens-Elema, Erlangen/Germany).
(§1) Six dogs were studied in five different protocols in randomized order:
5) Ethoxzolamide (Sigma-Aldrich, Steinheim/Germany) intravenously: Bolus ethoxzolamide (1 mg/kg), followed by a continuous infusion of 1 mg·kg^−1·h^−1.
The hemodynamic measurements (arterial blood pressure, heart rate, central venous pressure, pulmonary artery pressure, pulmonary capillary wedge pressure), minute ventilation, renal function data, time points for blood samples for blood gases, actual bicarbonate, base excess, plasma electrolytes and hormones, measurements of plasma and urinary values were according to former studies.
(§2) Values are given as means±SEM (n=6). For intra-group comparisons a general linear model of analysis of variance (GLM-ANOVA) for repeated measures was applied (NCSS97/PASS 2000, Saugus/MA, USA). Post-hoc testing of means was performed with Student's t-test. Level of significance for error of first order was adjusted according to Holm's procedure. Statistical significance was assumed at p<0.05.

Beagle dogs [2] = test: Dog study: plasma hormones, electrolytes and renal function; type: in vivo; conditions: for plasma renin activity: both acetazolamide protocols (iv, po)
Procedure: A total of 30 experiments were performed on six female Beagle dogs (body wt 14.3±0.3 kg). The dogs were kept under highly standardized conditions and received a standardized diet five days before the experiments. The preparation and catheterization of the conscious dog were performed according to former experiments as in Höhne C., et al., J Appl Physiol (2004), which is hereby incorporated by reference in its entirety. To permit spontaneous breathing through a low resistance circuit, a face mask was attached, which enclosed the dog's snout in a leak proof fashion. This custom made mask is equipped with a 2.5 cm ID connector to connect it to a ventilator set to CPAP mode (3 4 cmH20) (Servo900C; Siemens-Elema, Erlangen/Germany).
as §1
4) Benzolamide intravenously: Bolus (2 mg/kg), followed by a continuous infusion of 2 mg·kg^−1·h^−1, a dosage which inhibits only renal and vascular endothelial extracellular CA, without affecting red cell CA as in Travis D. M., et al. J Pharmacol Exp Ther (1964), which is hereby incorporated by reference in its entirety. 5) Ethoxzolamide (Sigma-Aldrich, Steinheim/Germany) intravenously: Bolus ethoxzolamide (1 mg/kg), followed by a continuous infusion of 1 mg·kg^−1·h^−1.
In control experiments, the dogs breathed room air (21% O2, 79% N2; normoxia) for one hour, followed by breathing a gas mixture containing 10% O2 and 90% N2 for two hours (hypoxia). The time course was the same for the CA inhibitor experiments, but F1O2 was reduced to 0.09 during the hypoxia period to match the arterial and alveolar PO2 of the control dogs, which otherwise would have been higher on 10% O2 as a result of the known ventilatory stimulant effect of all CA inhibitors. See Höhne C., et al., J Appl Physiol 97:515-521 (2004), which is hereby incorporated by reference in its entirety. The hemodynamic measurements (arterial blood pressure, heart rate, central venous pressure, pulmonary artery pressure, pulmonary capillary wedge pressure), minute ventilation, renal function data, time points for blood samples for blood gases, actual bicarbonate, base excess, plasma electrolytes and hormones, measurements of plasma and urinary values were according to former studies. See Höhne C., et al., J Appl Physiol 90:1842-1848 (2001), which is hereby incorporated by reference in its entirety.
as §2

PASMCs [3] = test: Hypoxia-induced increase in [Ca2+]i in PASMCs (4% O2); type: cell-based, rat; conditions: 10-100 μM
Procedure: (§3) Intrapulmonary arteries (200-600 μm o.d.) were isolated from male Wistar rats (250-350 g) and cleaned of connective tissue. After the lumen was gently rubbed with a cotton swab to remove the endothelial cells, the arteries were allowed to recover for 30 minutes in cold (4° C.) HBSS containing (in mM): 130 NaCl, 5 KCl, 1.2 MgCl2, 1.5 CaCl2, 10 N-[2-hydroxyethyl]piperazine-N′-[2-ethanesulfonic acid] (HEPES) and 10 glucose, with pH adjusted to 7.2 with 5 M NaOH, followed by 20 minutes in reduced-Ca^2+ (20 μM CaCl2) HBSS at room temperature. […] Following digestion, single smooth muscle cells were dispersed by gentle trituration with a wide-bore transfer pipette in Ca^2+-free HBSS and the cell suspension was placed on 25 mm glass cover slips. PASMCs were transiently cultured in Ham's-F-12 media supplemented with 0.5% fetal bovine serum and 1% penicillin/streptomycin for 24-48 hrs. before study.
(§4) Acute hypoxia increases intracellular [Ca^2+] in pulmonary arterial smooth muscle by enhancing capacitative Ca^2+ entry. […] Ratiometric measurement of fluorescence from the dye was performed on a workstation (Intracellular Imaging Inc, Cincinnati, Ohio) consisting of a Nikon TSE 100 Ellipse inverted microscope with epi-fluorescence attachments. The light beam from a xenon arc lamp was filtered at 340 and 380 nm, and focused onto the PASMCS under examination via a 20× fluorescence objective (Super Fluor 20, Nikon). Light emitted from the cell at 510 nm was returned through the objective and detected by a cooled CCD imaging camera. An electronic shutter (Sutter Instruments) was used to minimize photobleaching of dye. Protocols were executed and data collected on-line with InCyte software (Intracellular Imaging Inc). [Ca^2+]i was estimated from in vitro calibration solutions.

PASMCs [4] = test: Basal intracellular Ca2+ concentration in PASMCs (Fura-2); type: cell-based, rat
Procedure: as §3, §4

[5] = iv bolus + continuous infusion, hypoxia 2nd h
[6] = iv bolus + continuous infusion, hypoxia 3rd h
[7] = iv bolus + continuous infusion, normoxia 1st h
[8] = po 5 mg/kg 12 and 1 hr before, hypoxia 2nd h
[9] = po 5 mg/kg 12 and 1 hr before, hypoxia 3rd h
[10] = po 5 mg/kg 12 and 1 hr before, normoxia 1st h

Q: Which results are given for `CC(=O)Nc1nnc(S(N)(=O)=O)s1` [AZ, acetazolamide]?
A: BEa, arterial base excess (Beagle dogs [1]; [5]): -4.0 ± 0.3 mM; HCO3a, arterial actual bicarbonate concentration (Beagle dogs [1]; [5]): 19.0 ± 0.4 mM; PaCO2, arterial carbon dioxide tension (Beagle dogs [1]; [5]): 30 ± 1 Torr; PaO2, arterial oxygen tension (Beagle dogs [1]; [5]): 37 ± 1 Torr; VE, minute ventilation (Beagle dogs [1]; [5]): 5.8 ± 0.6 L/min; BEa, arterial base excess (Beagle dogs [1]; [6]): -5.6 ± 0.5 mM; HCO3a, arterial actual bicarbonate concentration (Beagle dogs [1]; [6]): 17.5 ± 0.5 mM; PaCO2, arterial carbon dioxide tension (Beagle dogs [1]; [6]): 28 ± 1 Torr; PaO2, arterial oxygen tension (Beagle dogs [1]; [6]): 39 ± 1 Torr; VE, minute ventilation (Beagle dogs [1]; [6]): 7.0 ± 0.6 L/min; BEa, arterial base excess (Beagle dogs [1]; [7]): -3.1 ± 0.5 mM; HCO3a, arterial actual bicarbonate concentration (Beagle dogs [1]; [7]): 20.9 ± 0.6 mM; PaCO2, arterial carbon dioxide tension (Beagle dogs [1]; [7]): 34 ± 1 Torr; PaO2, arterial oxygen tension (Beagle dogs [1]; [7]): 106 ± 3 Torr; VE, minute ventilation (Beagle dogs [1]; [7]): 4.0 ± 0.3 L/min; BEa, arterial base excess (Beagle dogs [1]; [8]): -5.8 ± 0.4 mM; HCO3a, arterial actual bicarbonate concentration (Beagle dogs [1]; [8]): 17.6 ± 0.6 mM; PaCO2, arterial carbon dioxide tension (Beagle dogs [1]; [8]): 29 ± 1 Torr; PaO2, arterial oxygen tension (Beagle dogs [1]; [8]): 37 ± 1 Torr; VE, minute ventilation (Beagle dogs [1]; [8]): 5.9 ± 0.2 L/min; BEa, arterial base excess (Beagle dogs [1]; [9]): -6.5 ± 0.4 mM; PaCO2, arterial carbon dioxide tension (Beagle dogs [1]; [9]): 27 ± 1 Torr; PaO2, arterial oxygen tension (Beagle dogs [1]; [9]): 38 ± 1 Torr; VE, minute ventilation (Beagle dogs [1]; [9]): 6.1 ± 0.2 L/min; BEa, arterial base excess (Beagle dogs [1]; [10]): -7.2 ± 0.6 mM; HCO3a, arterial actual bicarbonate concentration (Beagle dogs [1]; [10]): 17.1 ± 0.7 mM; PaCO2, arterial carbon dioxide tension (Beagle dogs [1]; [10]): 32 ± 1 Torr; PaO2, arterial oxygen tension (Beagle dogs [1]; [10]): 108 ± 2 Torr; VE, minute ventilation (Beagle dogs [1]; [10]): 4.5 ± 0.3 L/min; pHa, arterial pH (Beagle dogs [1]; [10]): 7.34 ± 0.01; plasma renin activity (Beagle dogs [2]; hypoxia): 5 to 5.6 ng/mL/h; plasma renin activity (Beagle dogs [2]; normoxia): 2.9 to 3.2 ng/mL/h; reduction of glomerular filtration rate vs controls (Beagle dogs [2]; iv 2 mg/kg + 2 mg/kg/h, non-significant): 12%; GFR, glomerular filtration rate (Beagle dogs [2]; [5]): 3.3 ± 0.1 mL/min/kg; PK, plasma potassium concentration (Beagle dogs [2]; [5]): 2.8 ± 0.1 mM; UV, urine volume (Beagle dogs [2]; [5]): 161 ± 22 µL/min/kg; GFR, glomerular filtration rate (Beagle dogs [2]; [6]): 3.4 ± 0.2 mL/min/kg; PK, plasma potassium concentration (Beagle dogs [2]; [6]): 2.8 ± 0.1 mM; UV, urine volume (Beagle dogs [2]; [6]): 71 ± 10 µL/min/kg; GFR, glomerular filtration rate (Beagle dogs [2]; [7]): 3.4 ± 0.1 mL/min/kg; PK, plasma potassium concentration (Beagle dogs [2]; [7]): 3.0 ± 0.1 mM; UV, urine volume (Beagle dogs [2]; [7]): 99 ± 13 µL/min/kg; GFR, glomerular filtration rate (Beagle dogs [2]; [8]): 3.4 ± 0.3 mL/min/kg; PK, plasma potassium concentration (Beagle dogs [2]; [8]): 2.9 ± 0.1 mM; UKV, urinary potassium concentration (Beagle dogs [2]; [8]): 1.6 ± 0.3 µmol/min/kg; UV, urine volume (Beagle dogs [2]; [8]): 83 ± 24 µL/min/kg; urinary excretion rate (potassium in 2.2, sodium in 2.3) (Beagle dogs [2]; [8]): 1.6 ± 0.3 µmol/min/kg; GFR, glomerular filtration rate (Beagle dogs [2]; [9]): 3.3 ± 0.2 mL/min/kg; PK, plasma potassium concentration (Beagle dogs [2]; [9]): 2.9 ± 0.1 mM; UKV, urinary potassium concentration (Beagle dogs [2]; [9]): 1.6 ± 0.4 µmol/min/kg; UV, urine volume (Beagle dogs [2]; [9]): 48 ± 11 µL/min/kg; urinary excretion rate (potassium in 2.2, sodium in 2.3) (Beagle dogs [2]; [9]): 1.3 ± 0.1 µmol/min/kg; GFR, glomerular filtration rate (Beagle dogs [2]; [10]): 3.1 ± 0.2 mL/min/kg; PK, plasma potassium concentration (Beagle dogs [2]; [10]): 2.9 ± 0.1 mM; UV, urine volume (Beagle dogs [2]; [10]): 57 ± 11 µL/min/kg; effect on hypoxia-induced increase in [Ca^2+]i (PASMCs [3]): almost complete blockade; also recorded: significant reduction; basal [Ca^2+]i, Treatment (PASMCs [4]; 100 μM, after 10 min of perfusion): 150.0 ± 9.6 nM and 155.0 ± 9.6 nM; effect on resting [Ca^2+]i (PASMCs [4]; 10-100 μM): no effect; basal [Ca^2+]i, Baseline (PASMCs [4]; before perfusion with the compound): 159.6 ± 10.8 nM
